The text below walks through data of publication PMC7377361, “Pressurized DNA state inside herpes capsids—A novel antiviral target” (PLoS Pathogens, 2020).

The test system of one test is HSV-1 C-capsids. Description: Reconstituted nuclei-capsid MOA-assay, ultrathin-sectioning EM of DNA ejection. The settings on record: 37°C, 40 min; DAB-Am-4 58.5 μM, bPEI 600 39 μM, Arg^5+ 25 μM (N/P 1.5). Format: biochemical. The procedure: Once the integrity and functionality of the reconstituted nuclei-capsid system for MOA testing was established, we applied a stringent test of the antiviral activity of each compound. We used ultrathin-sectioning EM to visualize DNA injection from HSV-1 capsids into isolated nuclei with DAB-Am-4 (58.5 μM), bPEI 600 (39 μM), and Arg^5+(25 μM). Compound concentrations corresponded to an N/P ratio of 1.5 (scaled proportionally to virus concentration, as described above) (Fig 4). Purified DNA-filled C-capsids were incubated with isolated rat liver nuclei in the presence of cell cytosol supplemented with ATP regeneration system for 40 min at 37°C, providing optimum conditions, found to maximize capsid binding to NPCs with subsequent DNA ejection. […] Only capsids that appeared bound to the nuclear membrane are included in the statistics (more than 790 nuclei-bound capsids and over 140 nuclei were counted for each sample analysis, providing good statistics). [Note that micrographs shown in Raw 1 of Fig 4 are lower magnification images (13,500X) which show an area around a nuclear membrane with empty and DNA-filled capsids. For our analysis of capsids bound to NPCs, we only used higher magnification images (25,000X) shown in Raw 2, to identify capsids that were associated with visible NPCs. A larger collection of these EM-micrographs at magnification 25,000X with and without different compounds added is shown in a supporting raw data file (S5 Fig).]
We built an in vitro viral HSV-1 DNA translocation system in which the HSV-1 genome was released into nucleoplasm in a homogenate solution mimicking the cytoplasm environment; see details in previously described protocol in ref.[41]. In a typical system, rat liver cell nuclei were incubated with C-capsids (HSV-1 or GFP-labeled HSV-1) in solution containing: (i) cytosol, (ii) BSA, (iii) ATP regeneration system; see details in ref.[41]. The system was incubated at 37°C for 40 min, sufficient for capsid binding to nuclei. For inhibition studies, wheat germ agglutinin (WGA) was preincubated with the nuclei prior to addition of C-capsids. For compound-induced inhibition of DNA ejection studies, C-capsids were preincubated with the polyvalent cationic agents at the concentrations described in the main text before adding capsids to nuclei.
After incubation of nuclei with C-capsids, the samples were washed once with CBB buffer (1,000 rpm for 10 min in a microcentrifuge). The supernatant was then removed and replaced with a fixative (2.5% EM-grade glutaraldehyde and 2.0% EM-grade formaldehyde in 0.1 M sodium cacodylate buffer, pH 7.4) for 3 hours at 4 °C. The fixative was then removed, replaced briefly with buffer, and then replaced with 1% osmium tetroxide in buffer for 90 minutes. Each sample was then subjected to 10-minute buffer rinse, after which it was placed in 1% aqueous uranyl acetate and left overnight. The next day, each sample was dehydrated via a graded ethanol series, culminating in propylene oxide. Following a graded propylene oxide; Epon812 series, the nuclear pellets were embedded in Epon812 prior to cutting. Ultrathin (ca. 90 nm) Epon sections on grids were stained with 1% aqueous uranyl acetate and lead citrate. After the grids dried, areas of interest were imaged at 120 kV, spot 3 using a Tietz 2kx2k camera mounted on a Philips/FEI (now Thermo Fisher FEI) CM200 transmission electron microscope.

Test [1] concerns GFP-labeled HSV-1 virions. As to the kind of experiment: Binding of GFP-HSV-1 virions to the cell surface (confocal FM). In kind it is cell-based. The following applies: compound added to cell culture, then GFP-labeled HSV-1 virions. The source says: This likely occurs due to compounds’ high positive charge leading to electrostatic binding of polycations to negatively charged glycoprotein receptors on the cell membrane, such as heparansulfate proteoglycans (HSPG)[75]. Optimizing compound permeability into cells can be facilitated by e.g. prodrug approach, lipid vesicle delivery, and nanoparticle delivery, as well as other pathways. Compound permeability will be optimized in the future. […] Furthermore, choosing a reconstituted nuclei system for the MOA-assay (as opposed to infecting a cell culture) provides the benefit of isolating the effect of the compound on the single step of viral DNA ejection while avoiding interference from other processes occurring within the cell during viral replication.
Vero cell monolayers grown on chamber slides (Lab-Tek) were infected with a GFP-expressing HSV-1(K26GFP) at a MOI of 0.1 PFU per cell. Vero cells were also incubated with the same virus that was previously treated with different concentrations of the compounds to condense the viral DNA. The concentration of the compounds was calculated as described above. […]
Supplementary file ppat.1008604.s003.pdf: S2 Fig Effect of the compounds on the binding of HSV-1 virions to the cell surface during infection. […] Cells were fixed at 2 hpi and assessed by the presence of a GFP virus signal (green). […]

Where no end group is shown, it is not given here.

With `NCCCN(CCCN)CCCCN(CCCN)CCCN` [DAB-Am-4], in the test on HSV-1 C-capsids, the “Capsids bound to NPC: DNA-filled capsids” value was found to be 60%, the “Capsids bound to NPC: DNA-filled capsids (count)” value was 479, the “Capsids bound to NPC: Empty capsids” value is recorded as 40% and the “Capsids bound to NPC: Empty capsids (count)” value amounted to 313. For the same compound, the “virus adsorption to the cell” value in test [1] is “prevents virus adsorption to the cell”.
Taken in the same sequence, the figures for RRRRR [Arg^5+] were 50%, 399, 50%, 398 and “prevents virus adsorption to the cell”.
